# US20250084128A1, “ANTIVIRAL […]-STAPLED SARS-CoV-2 PEPTIDE-C[…] USES THEREOF” (priority 2021, published 2025)
# Entries after “also recorded” stand apart in the source; their conditions may differ.
# Key:
# Assay type in all cases: cell-based
# [1] = system: live SARS-CoV-2 virus
# [2] = system: pseudotyped SARS-CoV-2 virus
# [3] = system: GFP-expressing SARS-CoV-1 (Urbani) pseudovirus
Substance,differential antiviral activity [1],antiviral activity [2],antiviral activity [3],antiviral activity [1],"antiviral activity, i, i+7 staple scan [1]"
DISGINASVVNIQK8IDRLNEXAKNLNESLIDLQELGK [SEQ ID NO: 11],little to no activity,,,,
DISGINASVVNIQKEI8RLNEVAXNLNESLIDLQELGK [SEQ ID NO: 13],moderate activity,consistent antiviral activity,consistent antiviral activity,consistent antiviral activity,potent anti-viral activity; also recorded: among the most potent antiviral activity; also recorded: uniquely potent
DISGINASVVNIQKEID8LNEVAKXLNESLIDLQELGK [SEQ ID NO: 14],little to no activity,,,,
DISGINASVVNIQKEIDR8NEVAKNXNESLIDLQELGK [SEQ ID NO: 15],little to no activity,,,,
DISGINASVVNIQKEIDRL8EVAKNLXESLIDLQELGK [SEQ ID NO: 16],moderate activity,,,,
